≈ marks a conversion by molar mass, not a printed value. Non-standard residues stand in square brackets, D forms with d. Residues, ends and D or L forms follow the SMILES beside them. hSer = N[C@@H](CCO)C(=O)O; Dab = NCC[C@H](N)C(=O)O; Abu = CC[C@H](N)C(=O)O
Experiments:
[1] = tested on: Pseudomonas aeruginosa P1021903; format: cell-based; conditions: P1021903
Outline: (§1)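 Modified NCCLS broth microdilution; MH broth + 0.02% BSA; inoculum ~10^6 CFU/ml (0.5 McFarland); 1:1 with 2-fold serial peptide dilutions.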

[2] = tested on: Pseudomonas aeruginosa IMP 1 Livermore 3140; format: cell-based; conditions: IMP 1 Livermore 3140
Outline: as §1

[3] = tested on: Pseudomonas aeruginosa P8191900; format: cell-based; conditions: P8191900
Outline: as §1

[4] = tested on: Pseudomonas aeruginosa P1021913; format: cell-based; conditions: P1021913
Outline: as §1

[5] = tested on: human red blood cells (hRBC); assay: Hemolysis; format: cell-based; conditions: 100
HELA cells (Acc57) = assay: Cytotoxicity assay, MTT reduction (LC 50, GI 50); format: cell-based
Outline: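 Read-out was MTT reduction (A595) after 48 h peptide exposure (12.5–50 μM, triplicates) of HeLa cells plated at 7.0×10^3/well and precultured 24 h. Growth % was normalised to a time-zero reading. Linear trend interpolation gave the concentration at −50% growth (LC50) and at 50% growth (GI50).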

P. aeruginosa ATCC 27853 = format: cell-based, Pseudomonas aeruginosa; conditions: ATCC 27853
Outline: as §1

[6] = Plasma stability, rat plasma; format: in vitro ADME
[7] = Plasma stability, human plasma; format: in vitro ADME

In the case of `CC[C@@H]1NC(=O)[C@H](CCN)NC(=O)[C@H](CCN)NC(=O)[C@H](Cc2c[nH]c3ccccc23)NC(=O)[C@H](CCN)NC(=O)[C@H](CCN)NC(=O)[C@H](CCCCN)NC(=O)[C@H](CCN)NC(=O)[C@H]([C@@H](C)CC)NC(=O)[C@H](Cc2c[nH]c3ccccc23)NC(=O)[C@H]([C@@H](C)O)NC(=O)[C@@H]2CCCN2C(=O)[C@H]2CCCN2C(=O)[C@H](CCN)NC1=O` [Example 6] (cyclo(TWI[Dab]K[Dab][Dab]W[Dab][Dab][Abu][Dab][dP]P)), the “MIC P. aeruginosa P1021903” value [1] is reported as 0.09 µg/mL (≈ 0.0564 µM), the “MIC P. aeruginosa IMP1 Livermore 3140” value [2] is reported as 0.24 µg/mL (≈ 0.15 µM) and the “MIC P. aeruginosa P8191900” value [3] is reported as 0.10 µg/mL (≈ 0.0627 µM). For the same compound, the “MIC P. aeruginosa P1021913” value [4] was 0.16 µg/mL (≈ 0.1 µM), the “Hemolysis at 100 μg/ml” value [5] was 0.2% and the Cytotoxicity GI50 Hela cells (HELA cells (Acc57)) was 50 µM. For the same compound, the “Average MIC” value (P. aeruginosa) was 0.13 µg/mL, the “MIC P. aeruginosa ATCC 27853” value (P. aeruginosa ATCC 27853) was 0.05 µg/mL (≈ 0.0313 µM) and the “Stability rat Plasma t1/2” value [6] was 5 h. For the same compound, the “Stability human Plasma t1/2” value [7] was 5 h.
With `CC[C@H](C)[C@@H]1NC(=O)[C@H](Cc2c[nH]c3ccccc23)NC(=O)[C@H]([C@@H](C)O)NC(=O)[C@@H]2CCCN2C(=O)[C@H]2CCCN2C(=O)[C@H](CCN)NC(=O)[C@H]([C@@H](C)O)NC(=O)[C@H](CCN)NC(=O)[C@H](CCN)NC(=O)[C@H](Cc2c[nH]c3ccccc23)NC(=O)[C@H](CCN)NC(=O)[C@H](CCN)NC(=O)[C@H](CCCCN)NC(=O)[C@H](CCN)NC1=O` [Example 16] (cyclo(TWI[Dab]K[Dab][Dab]W[Dab][Dab]T[Dab][dP]P)) the “MIC P. aeruginosa P1021903” value [1] was 0.05 µg/mL (≈ 0.031 µM), the “MIC P. aeruginosa IMP1 Livermore 3140” value [2] was 0.24 µg/mL (≈ 0.149 µM) and the “MIC P. aeruginosa P8191900” value [3] was 0.09 µg/mL (≈ 0.0559 µM). The “MIC P. aeruginosa P1021913” value [4] was 0.10 µg/mL (≈ 0.0621 µM), the “Hemolysis at 100 μg/ml” value [5] was 0.1% and the Cytotoxicity GI50 Hela cells (HELA cells (Acc57)) was 50 µM. For the same compound, the “Average MIC” value (P. aeruginosa) was 0.11 µg/mL, the “MIC P. aeruginosa ATCC 27853” value (P. aeruginosa ATCC 27853) was 0.05 µg/mL (≈ 0.031 µM) and the “Stability rat Plasma t1/2” value [6] was 5 h. For the same compound, the “Stability human Plasma t1/2” value [7] was 5 h.
In the case of `CC[C@H](C)[C@@H]1NC(=O)[C@H](Cc2c[nH]c3ccccc23)NC(=O)[C@H](C)NC(=O)[C@@H]2CCCN2C(=O)[C@H]2CCCN2C(=O)[C@H](CCN)NC(=O)[C@H](C)NC(=O)[C@H](CCN)NC(=O)[C@H](CCN)NC(=O)[C@H](Cc2c[nH]c3ccccc23)NC(=O)[C@H](CCN)NC(=O)[C@H](CCN)NC(=O)[C@H](CCCCN)NC(=O)[C@H](CCN)NC1=O` [Example 22] (cyclo(AWI[Dab]K[Dab][Dab]W[Dab][Dab]A[Dab][dP]P)), the “MIC P. aeruginosa P1021903” value [1] is reported as 0.09 µg/mL (≈ 0.058 µM), the “MIC P. aeruginosa IMP1 Livermore 3140” value [2] is reported as 0.24 µg/mL (≈ 0.155 µM) and the “MIC P. aeruginosa P8191900” value [3] is reported as 0.09 µg/mL (≈ 0.058 µM). For the same compound, the “MIC P. aeruginosa P1021913” value [4] was 0.16 µg/mL (≈ 0.103 µM), the “Hemolysis at 100 μg/ml” value [5] was 0.2% and the Cytotoxicity GI50 Hela cells (HELA cells (Acc57)) was 50 µM. For the same compound, the “Average MIC” value (P. aeruginosa) was 0.12 µg/mL, the “MIC P. aeruginosa ATCC 27853” value (P. aeruginosa ATCC 27853) was 0.02 µg/mL (≈ 0.0129 µM) and the “Stability rat Plasma t1/2” value [6] was 5 h. The “Stability human Plasma t1/2” value [7] was 5 h.
For `CC[C@H](C)[C@@H]1NC(=O)[C@H](Cc2c[nH]c3ccccc23)NC(=O)[C@H]([C@@H](C)O)NC(=O)[C@@H]2CCCN2C(=O)[C@H]2CCCN2C(=O)[C@H](CCN)NC(=O)[C@H](C)NC(=O)[C@H](CCN)NC(=O)[C@H](CCN)NC(=O)[C@H](Cc2c[nH]c3ccccc23)NC(=O)[C@H](CCN)NC(=O)[C@H](CCCCN)NC(=O)[C@H](CCCCN)NC(=O)[C@H](CCN)NC1=O` [Example 25] (cyclo(TWI[Dab]KK[Dab]W[Dab][Dab]A[Dab][dP]P)), the “MIC P. aeruginosa P1021903” value [1] was 0.05 µg/mL (≈ 0.0311 µM), the “MIC P. aeruginosa IMP1 Livermore 3140” value [2] was 0.24 µg/mL (≈ 0.149 µM) and the “MIC P. aeruginosa P8191900” value [3] was 0.10 µg/mL (≈ 0.0622 µM). For the same compound, the “MIC P. aeruginosa P1021913” value [4] was 0.13 µg/mL (≈ 0.0808 µM), the “Hemolysis at 100 μg/ml” value [5] was 0.1% and the Cytotoxicity GI50 Hela cells (HELA cells (Acc57)) was 50 µM. The “Average MIC” value (P. aeruginosa) was 0.11 µg/mL, the “MIC P. aeruginosa ATCC 27853” value (P. aeruginosa ATCC 27853) was 0.05 µg/mL (≈ 0.0311 µM) and the “Stability rat Plasma t1/2” value [6] was 5 h. The “Stability human Plasma t1/2” value [7] was 5 h.
For `CC[C@H](C)[C@@H]1NC(=O)[C@H](Cc2c[nH]c3ccccc23)NC(=O)[C@H]([C@@H](C)O)NC(=O)[C@@H]2CCCN2C(=O)[C@H]2CCCN2C(=O)[C@H](CCCCN)NC(=O)[C@H](C)NC(=O)[C@H](CCN)NC(=O)[C@H](CCN)NC(=O)[C@H](Cc2c[nH]c3ccccc23)NC(=O)[C@H](CCN)NC(=O)[C@H](CCN)NC(=O)[C@H](CCCCN)NC(=O)[C@H](CCN)NC1=O` [Example 28] (cyclo(TWI[Dab]K[Dab][Dab]W[Dab][Dab]AK[dP]P)), the “MIC P. aeruginosa P1021903” value [1] was 0.07 µg/mL (≈ 0.0435 µM), the “MIC P. aeruginosa IMP1 Livermore 3140” value [2] was 0.24 µg/mL (≈ 0.149 µM) and the “MIC P. aeruginosa P8191900” value [3] was 0.10 µg/mL (≈ 0.0622 µM). The “MIC P. aeruginosa P1021913” value [4] was 0.16 µg/mL (≈ 0.0994 µM), the “Hemolysis at 100 μg/ml” value [5] was 0.1% and the Cytotoxicity GI50 Hela cells (HELA cells (Acc57)) was 50 µM. For the same compound, the “Average MIC” value (P. aeruginosa) was 0.12 µg/mL, the “MIC P. aeruginosa ATCC 27853” value (P. aeruginosa ATCC 27853) was 0.04 µg/mL (≈ 0.0249 µM) and the “Stability rat Plasma t1/2” value [6] was 5 h. For the same compound, the “Stability human Plasma t1/2” value [7] was 5 h.
In the case of `CC[C@H](C)[C@@H]1NC(=O)[C@H](Cc2c[nH]c3ccccc23)NC(=O)[C@H]([C@@H](C)O)NC(=O)[C@@H]2CCCN2C(=O)[C@H]2CCCN2C(=O)[C@H](CCN)NC(=O)[C@H](C)NC(=O)[C@H](CCN)NC(=O)[C@H](CCN)NC(=O)[C@H](Cc2c[nH]c3ccccc23)NC(=O)[C@H](CCN)NC(=O)[C@H](CCN)NC(=O)[C@H](CCCCN)NC(=O)[C@H](CCC(N)=O)NC1=O` [Example 29] (cyclo(TWIQK[Dab][Dab]W[Dab][Dab]A[Dab][dP]P)), the “MIC P. aeruginosa P1021903” value [1] is reported as 0.13 µg/mL (≈ 0.0808 µM), the “MIC P. aeruginosa IMP1 Livermore 3140” value [2] is reported as 0.40 µg/mL (≈ 0.249 µM) and the “MIC P. aeruginosa P8191900” value [3] is reported as 0.13 µg/mL (≈ 0.0808 µM). For the same compound, the “MIC P. aeruginosa P1021913” value [4] was 0.21 µg/mL (≈ 0.131 µM), the “Hemolysis at 100 μg/ml” value [5] was 0.5% and the Cytotoxicity GI50 Hela cells (HELA cells (Acc57)) was 50 µM. The “Average MIC” value (P. aeruginosa) was 0.19 µg/mL, the “MIC P. aeruginosa ATCC 27853” value (P. aeruginosa ATCC 27853) was 0.09 µg/mL (≈ 0.0559 µM) and the “Stability rat Plasma t1/2” value [6] was 5 h. For the same compound, the “Stability human Plasma t1/2” value [7] was 5 h.
With `CC(C)[C@@H]1NC(=O)[C@H](Cc2c[nH]c3ccccc23)NC(=O)[C@H]([C@@H](C)O)NC(=O)[C@@H]2CCCN2C(=O)[C@H]2CCCN2C(=O)[C@H](CCN)NC(=O)[C@H](C)NC(=O)[C@H](CCN)NC(=O)[C@H](CCN)NC(=O)[C@H](Cc2c[nH]c3ccccc23)NC(=O)[C@H](CCN)NC(=O)[C@H](CCN)NC(=O)[C@H](CCCCN)NC(=O)[C@H](CCN)NC1=O` [Example 32] (cyclo(TWV[Dab]K[Dab][Dab]W[Dab][Dab]A[Dab][dP]P)) the “MIC P. aeruginosa P1021903” value [1] was 0.05 µg/mL (≈ 0.0319 µM), the “MIC P. aeruginosa IMP1 Livermore 3140” value [2] was 0.22 µg/mL (≈ 0.14 µM) and the “MIC P. aeruginosa P8191900” value [3] was 0.05 µg/mL (≈ 0.0319 µM). The “MIC P. aeruginosa P1021913” value [4] was 0.10 µg/mL (≈ 0.0638 µM), the “Hemolysis at 100 μg/ml” value [5] was 0% and the Cytotoxicity GI50 Hela cells (HELA cells (Acc57)) was 50 µM. For the same compound, the “Average MIC” value (P. aeruginosa) was 0.09 µg/mL, the “MIC P. aeruginosa ATCC 27853” value (P. aeruginosa ATCC 27853) was 0.02 µg/mL (≈ 0.0128 µM) and the “Stability rat Plasma t1/2” value [6] was 5 h. The “Stability human Plasma t1/2” value [7] was 5 h.
For `CC[C@H](C)[C@@H]1NC(=O)[C@H](Cc2c[nH]c3ccccc23)NC(=O)[C@H]([C@@H](C)O)NC(=O)[C@@H]2CCCN2C(=O)[C@H]2CCCN2C(=O)[C@H](CCN)NC(=O)[C@H](CCO)NC(=O)[C@H](CCN)NC(=O)[C@H](CCN)NC(=O)[C@H](Cc2c[nH]c3ccccc23)NC(=O)[C@H](CCN)NC(=O)[C@H](CCN)NC(=O)[C@H](CCCCN)NC(=O)[C@H](CCN)NC1=O` [Example 35] (cyclo(TWI[Dab]K[Dab][Dab]W[Dab][Dab][hSer][Dab][dP]P)), the “MIC P. aeruginosa P1021903” value [1] was 0.10 µg/mL (≈ 0.0621 µM), the “MIC P. aeruginosa IMP1 Livermore 3140” value [2] was 0.31 µg/mL (≈ 0.192 µM) and the “MIC P. aeruginosa P8191900” value [3] was 0.22 µg/mL (≈ 0.137 µM). The “MIC P. aeruginosa P1021913” value [4] was 0.24 µg/mL (≈ 0.149 µM), the “Hemolysis at 100 μg/ml” value [5] was 0.2% and the Cytotoxicity GI50 Hela cells (HELA cells (Acc57)) was 48 µM. For the same compound, the “Average MIC” value (P. aeruginosa) was 0.18 µg/mL, the “MIC P. aeruginosa ATCC 27853” value (P. aeruginosa ATCC 27853) was 0.05 µg/mL (≈ 0.031 µM) and the “Stability rat Plasma t1/2” value [6] was 5 h. The “Stability human Plasma t1/2” value [7] was 5 h.

— US9521846B2, “Template-fixed peptidomimetics with antimicrobial activity” (priority 2006, dated 2016)
